The text below walks through data of ChEMBL document CHEMBL4627322, “Design and synthesis of a novel class EGFR/HER2 dual inhibitors containing tricyclic oxazine fused quinazolines scaffold” (Bioorg Med Chem Lett, 2020).

SMILES strings stand for the structures.

Assay [1] has as its target T1, Epidermal growth factor receptor (Homo sapiens, UniProt P00533). The experiment in a line: Potency index, ratio of lapatinib IC50 to test compound IC50 for inhibition of EGFR (unknown origin) using FAM-labeled peptide as substrate preincubated for 10 mins followed by substrate addition measured after 40 mins in presence of ATP by caliper mobility shift assay.
Assay [2] has as its target T1, Epidermal growth factor receptor.
Description: Inhibition of EGFR (unknown origin) using FAM-labeled peptide as substrate preincubated for 10 mins followed by substrate addition measured after 40 mins in presence of ATP by caliper mobility shift assay
The subject of assay [3] is A-431. The experiment in a line: cells. It is filed as functional, cell-based. The following applies: Homo sapiens, A-431, 72 h.
Description: Antiproliferative activity against human A431 cells overexpressing EGFR assessed as cell growth inhibition measured after 72 hrs by MTT assay
Assay [4] deals with T2, Receptor tyrosine-protein kinase erbB-2 (Homo sapiens, UniProt P04626). The assay can be described thus: Inhibition of HER2 (unknown origin) using FAM-labeled peptide as substrate preincubated for 10 mins followed by substrate addition measured after 40 mins in presence of ATP by caliper mobility shift assay.
T2 sequence (P04626 whole entry): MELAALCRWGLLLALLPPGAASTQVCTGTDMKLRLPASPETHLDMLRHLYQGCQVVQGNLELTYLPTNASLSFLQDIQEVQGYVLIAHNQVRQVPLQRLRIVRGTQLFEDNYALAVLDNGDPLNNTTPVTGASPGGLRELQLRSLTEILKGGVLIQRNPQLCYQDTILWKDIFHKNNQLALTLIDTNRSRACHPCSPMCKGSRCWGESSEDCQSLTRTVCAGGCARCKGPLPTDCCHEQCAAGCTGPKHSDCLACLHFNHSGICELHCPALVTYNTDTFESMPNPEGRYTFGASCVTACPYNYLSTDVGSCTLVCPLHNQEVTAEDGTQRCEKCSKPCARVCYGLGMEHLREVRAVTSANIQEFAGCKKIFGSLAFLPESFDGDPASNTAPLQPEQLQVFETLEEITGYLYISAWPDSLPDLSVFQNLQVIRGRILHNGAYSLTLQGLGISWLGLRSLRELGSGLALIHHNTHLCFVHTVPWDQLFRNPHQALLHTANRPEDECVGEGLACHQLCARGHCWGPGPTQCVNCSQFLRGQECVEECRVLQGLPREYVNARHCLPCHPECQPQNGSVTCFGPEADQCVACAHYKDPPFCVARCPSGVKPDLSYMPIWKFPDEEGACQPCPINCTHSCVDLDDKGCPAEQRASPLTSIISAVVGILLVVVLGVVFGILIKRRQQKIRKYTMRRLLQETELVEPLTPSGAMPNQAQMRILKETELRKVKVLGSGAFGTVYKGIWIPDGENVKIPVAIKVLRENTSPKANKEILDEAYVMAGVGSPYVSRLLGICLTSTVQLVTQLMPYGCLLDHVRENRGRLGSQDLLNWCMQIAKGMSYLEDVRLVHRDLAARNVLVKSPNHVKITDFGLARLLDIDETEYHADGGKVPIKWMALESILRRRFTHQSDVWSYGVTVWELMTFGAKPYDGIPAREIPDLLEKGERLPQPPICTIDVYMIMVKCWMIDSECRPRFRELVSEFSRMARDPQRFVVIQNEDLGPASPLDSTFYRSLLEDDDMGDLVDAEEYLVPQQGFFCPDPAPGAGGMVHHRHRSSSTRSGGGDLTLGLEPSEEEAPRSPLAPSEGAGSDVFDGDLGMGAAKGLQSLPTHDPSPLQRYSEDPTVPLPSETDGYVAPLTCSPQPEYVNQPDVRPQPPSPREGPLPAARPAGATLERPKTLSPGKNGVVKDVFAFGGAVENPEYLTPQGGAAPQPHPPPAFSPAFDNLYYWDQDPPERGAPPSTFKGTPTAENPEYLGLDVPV
For assay [5], the system named is Calu-3. The experiment in a line: cells. Format: functional, cell-based. The following applies: Homo sapiens, Calu-3, 72 h.
Description: Antiproliferative activity against human Calu3 cells overexpressing HER2 assessed as cell growth inhibition measured after 72 hrs by MTT assay
Assay [6] has as its target T1, Epidermal growth factor receptor. It is filed as cell-based, KB.
Description: Inhibition of EGFR in human KB cells assessed as reduction in EGF-stimulated EGFR phosphorylation preincubated for 1 hr followed by EGF stimulation and measured after 6 mins by ELISA
The subject of assay [7] is NCI-H1975. The assay can be described thus: cells. It is filed as functional, cell-based. The following applies: Homo sapiens, NCI-H1975, 72 h.
Description: Antiproliferative activity against human NCI-H1975 cells harboring EGFR L858R/T790M mutant assessed as cell growth inhibition measured after 72 hrs by MTT assay
Assay [8] deals with NCI-N87. The assay can be described thus: cells. Format: functional, cell-based. The following applies: Homo sapiens, NCI-N87, 72 h.
Description: Antiproliferative activity against human NCI-N87 cells overexpressing HER2 assessed as cell growth inhibition measured after 72 hrs by MTT assay
Assay [9] relates to BT-474. The assay can be described thus: cells. Format: functional, cell-based. The settings on record: Homo sapiens, BT-474, 72 h.
Description: Antiproliferative activity against human BT474 cells overexpressing HER2 assessed as cell growth inhibition measured after 72 hrs by MTT assay
For assay [10], the target named is T2, Receptor tyrosine-protein kinase erbB-2. The experiment in a line: Potency index, ratio of erlotinib IC50 to test compound IC50 for inhibition of HER2 (unknown origin) using FAM-labeled peptide as substrate preincubated for 10 mins followed by substrate addition measured after 40 mins in presence of ATP by caliper mobility shift assay.
For assay [11] the target is unchanged. The experiment in a line: Potency index, ratio of lapatinib IC50 to test compound IC50 for inhibition of HER2 (unknown origin) using FAM-labeled peptide as substrate preincubated for 10 mins followed by substrate addition measured after 40 mins in presence of ATP by caliper mobility shift assay.
In assay [12] the test system is NCI-H1975. The experiment in a line: Potency index, ratio of erlotinib IC50 to test compound IC50 for antiproliferative activity against human NCI-H1975 cells harboring EGFR L858R/T790M mutant assessed as cell growth inhibition measured after 72 hrs by MTT assay. It is filed as functional.
Assay [13] addresses T2, Receptor tyrosine-protein kinase erbB-2. The assay can be described thus: Potency index, ratio of gefitinib IC50 to test compound IC50 for inhibition of HER2 (unknown origin) using FAM-labeled peptide as substrate preincubated for 10 mins followed by substrate addition measured after 40 mins in presence of ATP by caliper mobility shift assay.
Assay [14] has as its system NCI-H1975. The assay can be described thus: Potency index, ratio of lapatinib IC50 to test compound IC50 for antiproliferative activity against human NCI-H1975 cells harboring EGFR L858R/T790M mutant assessed as cell growth inhibition measured after 72 hrs by MTT assay. It is filed as functional. In general terms: Tetrazolium dyes change colour on reduction, which living cells bring about.

For assay [15], the system named is NCI-H1975. The assay can be described thus: Potency index, ratio of gefitinib IC50 to test compound IC50 for antiproliferative activity against human NCI-H1975 cells harboring EGFR L858R/T790M mutant assessed as cell growth inhibition measured after 72 hrs by MTT assay. Format: functional.
Assay [16] concerns Calu-3. The experiment in a line: Potency index, ratio of erlotinib IC50 to test compound IC50 for antiproliferative activity against human Calu3 cells overexpressing HER2 assessed as cell growth inhibition measured after 72 hrs by MTT assay. It is filed as functional.
Assay [17] deals with BT-474. The assay can be described thus: Potency index, ratio of lapatinib IC50 to test compound IC50 for antiproliferative activity against human BT474 cells overexpressing HER2 assessed as cell growth inhibition measured after 72 hrs by MTT assay. Format: functional.
The test system of assay [18] is Calu-3. The assay can be described thus: Potency index, ratio of lapatinib IC50 to test compound IC50 for antiproliferative activity against human Calu3 cells overexpressing HER2 assessed as cell growth inhibition measured after 72 hrs by MTT assay. It is filed as functional.
In assay [19] the test system is BT-474. The assay can be described thus: Potency index, ratio of gefitinib IC50 to test compound IC50 for antiproliferative activity against human BT474 cells overexpressing HER2 assessed as cell growth inhibition measured after 72 hrs by MTT assay. It is filed as functional.
Assay [20] has as its system NCI-N87. The experiment in a line: Potency index, ratio of gefitinib IC50 to test compound IC50 for antiproliferative activity against human NCI-N87 cells overexpressing HER2 assessed as cell growth inhibition measured after 72 hrs by MTT assay. Format: functional.
The test system of assay [21] is BT-474. The assay can be described thus: Potency index, ratio of erlotinib IC50 to test compound IC50 for antiproliferative activity against human BT474 cells overexpressing HER2 assessed as cell growth inhibition measured after 72 hrs by MTT assay. Format: functional.
In assay [22] the test system is NCI-N87. The experiment in a line: Potency index, ratio of erlotinib IC50 to test compound IC50 for antiproliferative activity against human NCI-N87 cells overexpressing HER2 assessed as cell growth inhibition measured after 72 hrs by MTT assay. Format: functional.
Assay [23] has as its system A-431. The experiment in a line: Potency index, ratio of lapatinib IC50 to test compound IC50 for antiproliferative activity against human A431 cells overexpressing EGFR assessed as cell growth inhibition measured after 72 hrs by MTT assay. Format: functional.
Assay [24] deals with NCI-N87. The experiment in a line: Potency index, ratio of lapatinib IC50 to test compound IC50 for antiproliferative activity against human NCI-N87 cells overexpressing HER2 assessed as cell growth inhibition measured after 72 hrs by MTT assay. Format: functional.
Assay [25] has as its system A-431. The experiment in a line: Potency index, ratio of erlotinib IC50 to test compound IC50 for antiproliferative activity against human A431 cells overexpressing EGFR assessed as cell growth inhibition measured after 72 hrs by MTT assay. Format: functional.
The test system of assay [26] is Calu-3. The experiment in a line: Potency index, ratio of gefitinib IC50 to test compound IC50 for antiproliferative activity against human Calu3 cells overexpressing HER2 assessed as cell growth inhibition measured after 72 hrs by MTT assay. It is filed as functional.
In assay [27] the test system is A-431. The assay can be described thus: Potency index, ratio of gefitinib IC50 to test compound IC50 for antiproliferative activity against human A431 cells overexpressing EGFR assessed as cell growth inhibition measured after 72 hrs by MTT assay. It is filed as functional.

T1 sequence (P00533 whole entry): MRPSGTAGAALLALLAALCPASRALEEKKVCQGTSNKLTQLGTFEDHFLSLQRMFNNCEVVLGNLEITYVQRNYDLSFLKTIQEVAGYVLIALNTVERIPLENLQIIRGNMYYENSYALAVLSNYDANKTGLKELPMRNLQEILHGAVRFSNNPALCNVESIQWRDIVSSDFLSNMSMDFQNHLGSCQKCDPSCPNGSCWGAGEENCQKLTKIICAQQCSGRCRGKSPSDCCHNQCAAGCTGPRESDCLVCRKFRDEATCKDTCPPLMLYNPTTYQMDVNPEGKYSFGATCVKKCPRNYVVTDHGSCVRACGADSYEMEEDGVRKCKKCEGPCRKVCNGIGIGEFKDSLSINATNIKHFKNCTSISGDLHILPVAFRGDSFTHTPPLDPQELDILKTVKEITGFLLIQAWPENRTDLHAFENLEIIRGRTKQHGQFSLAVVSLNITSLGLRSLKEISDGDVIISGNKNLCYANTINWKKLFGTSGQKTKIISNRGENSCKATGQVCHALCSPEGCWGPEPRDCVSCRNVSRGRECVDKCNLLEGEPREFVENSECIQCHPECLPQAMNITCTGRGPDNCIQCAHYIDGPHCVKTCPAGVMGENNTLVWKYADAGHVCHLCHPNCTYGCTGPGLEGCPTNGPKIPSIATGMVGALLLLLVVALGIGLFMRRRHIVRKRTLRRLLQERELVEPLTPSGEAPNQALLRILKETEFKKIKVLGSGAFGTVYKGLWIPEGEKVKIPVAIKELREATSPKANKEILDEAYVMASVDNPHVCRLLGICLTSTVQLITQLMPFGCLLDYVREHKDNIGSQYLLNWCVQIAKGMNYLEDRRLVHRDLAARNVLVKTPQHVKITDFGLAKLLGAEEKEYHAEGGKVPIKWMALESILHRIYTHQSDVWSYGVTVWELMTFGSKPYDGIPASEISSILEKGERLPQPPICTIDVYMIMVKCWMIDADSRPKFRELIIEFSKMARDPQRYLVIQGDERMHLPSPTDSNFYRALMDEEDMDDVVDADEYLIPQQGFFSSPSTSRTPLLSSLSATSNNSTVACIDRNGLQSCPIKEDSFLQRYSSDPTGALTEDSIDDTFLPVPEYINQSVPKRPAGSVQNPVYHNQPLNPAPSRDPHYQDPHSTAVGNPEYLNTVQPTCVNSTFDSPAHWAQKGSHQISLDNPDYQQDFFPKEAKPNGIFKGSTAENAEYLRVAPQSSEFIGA

On to `CN1CCN(C/C=C/C(=O)N2CCOc3cc4ncnc(Nc5ccc(OCc6cccc(F)c6)c(Cl)c5)c4cc32)CC1`, for which, in assay [1], the Ratio IC50 turned out to be 3.7. Moreover, the IC50 in [2] was found to be 6 nM; in assay [3] it was 177 nM; in assay [4], 12 nM; in assay [5], 142 nM; in [6], 45 nM; in assay [7] it was 2310 nM. Besides, the IC50 in assay [8] was 18 nM; in assay [9], 25 nM.
On to `O=C(/C=C/CN1CCCCC1)N1CCCOc2cc3ncnc(Nc4ccc(OCc5cccc(F)c5)c(Cl)c4)c3cc21`, for which the IC50 in assay [3] is greater than 10000 nM; in [5], greater than 10000 nM; in [6], 844 nM; in assay [7], 1660 nM; in assay [8] it was greater than 10000 nM; in assay [9], greater than 10000 nM.
On to `CCN(CC)C/C=C/C(=O)N1CCCOc2cc3ncnc(Nc4ccc(OCc5cccc(F)c5)c(Cl)c4)c3cc21`, for which the IC50 in assay [3] is greater than 10000 nM; in assay [5] it was greater than 10000 nM; in [6] it was 80 nM; in assay [7] it was 1490 nM; in assay [8], greater than 10000 nM; in assay [9] it was 116 nM.
On to `O=C(/C=C/CN1CCCC1)N1CCOc2cc3ncnc(Nc4ccc(OCc5cccc(F)c5)c(Cl)c4)c3cc21`, for which the Ratio IC50 in assay [1] is 3 to 4; in [10], 92; in assay [11], 3 to 4; in assay [12] it was 4 - 8; in assay [13], 70; in assay [14], 4 - 8. In addition, the “Ratio IC50” value in assay [15] is reported as 4 - 8. In addition, the IC50 in assay [2] stood at 7 nM; in assay [3] it was 633 nM; in assay [4], 4 nM; in assay [5], 177 nM; in assay [6] it was 121 nM; in assay [7], 1670 nM. Moreover, the IC50 in assay [8] stood at 48 nM; in [9], 60 nM.
Consider `O=C(/C=C/CN1CCOCC1)N1CCOc2cc3ncnc(Nc4ccc(OCc5cccc(F)c5)c(Cl)c4)c3cc21`, for which the “Ratio IC50” value is >5.9 - 909 in assay [16]; 2.5 - 28.3 in assay [17]; 2.5 - 28.3 in [18]; 4.3 - 26.6 in assay [19]; 4.3 - 26.6 in assay [20]; >5.9 - 909 in assay [21]. In addition, the “Ratio IC50” value is listed as >5.9 - 909 in assay [22]; 2.5 - 28.3 in assay [23]; 2.5 - 28.3 in [24]; >5.9 - 909 in [25]; 4.3 - 26.6 in [26]; 4.3 - 26.6 in assay [27]. Moreover, the IC50 in assay [2] is 7 nM; in [3], 127 nM; in assay [4], 12 nM; in assay [5], 37 nM; in assay [6], 12 nM; in [7] it was 4350 nM. The figures for the IC50 in [8] and in assay [9] were 11 nM and 15 nM, respectively.
For `CCN(CC)C/C=C/C(=O)N1CCOc2cc3ncnc(Nc4ccc(OCc5cccc(F)c5)c(Cl)c4)c3cc21`, the Ratio IC50 in assay [1] is 3 to 4; in assay [10], 92; in [11], 3 to 4; in assay [12], 4 - 8; in [13] it was 70; in assay [14] it was 4 - 8. For the same compound, the “Ratio IC50” value in [15] is 4 - 8. In addition, the IC50 in [2] came out at 8 nM; in [3], 612 nM; in assay [4], 4 nM; in assay [5], 275 nM; in assay [6], 163 nM; in assay [7], 1490 nM. For the same compound, the IC50 in assay [8] came to 37 nM; in assay [9], 57 nM.

By IC50 is commonly meant the point on the concentration scale where inhibition reaches its midpoint.
